Experimental data published in patent US20220016273A1, “COMPOSITION FOR DIAGNOSIS OF FUNGAL INFECTION” (CNCURE BIOTECH INC., priority 2019, published 2022).

How the values were obtained:
C. albicans = test: In vitro uptake of [^18F]FDS by cultured strains (gamma counter); format: cell-based, Candida albicans; conditions: 1×10^8 per mL, 0.74 MBq, incubated 2 hours (FIG. 3)
Description: (§1) The present inventors cultured the fungus using the following method. Specifically, Aspergillus fumigatus was smeared on potato dextrose agar medium (or YAG, yeast extract agar medium), and cultured at 30° C. for 2-3 days. Thereafter, the culture plate was washed with sterile physiological saline and Tween 20 [10 μl (1 drop)] and filtered with sterile gauze (or 40 μm-pore insertion filter). Then, the pellet was recovered using a centrifuge and the number of fungi was confirmed to prepare a bacterial solution of 1.5×10^9 conida/mL. Rhizopus arrhizus isolated from the patient was also cultured in the same way as A. fumigatus, prepared a fungal solution, and used for in vitro experiments. For Candida albicans, a strain isolated from the patient was also used, and cultured in SDA medium for 2-3 days. After recovering from the medium, a fungal solution was prepared.
(§2) The present inventors performed in vitro experiments on the strain cultured in Example 2 above. Specifically, each strain was prepared to be 1×10^8 per 1 mL of medium, and 1 mL was dispensed into tubes. The experiments were performed three times according to the experimental period, and 0.74 MBq of [^18F]FDS synthesized as described above was injected and incubated for 2 hours in the incubator. […] After washing twice with phosphate buffer, the filtered fungi were collected and the intake was measured with a gamma counter. […]

A. fumigatus = test: as above; format: cell-based, Aspergillus fumigatus; conditions: 1×10^8 per mL, 0.74 MBq, incubated 2 hours (FIG. 3)
Description: as §1, §2

Rhizopus sp. = test: as above; format: cell-based, Rhizopus arrhizus; conditions: 1×10^8 per mL, 0.74 MBq, incubated 2 hours (FIG. 3)
Description: as §1, §2

[1] = system: gram-negative bacterial strains; test: In vitro uptake of [^18F]FDS by bacterial strains; format: cell-based; conditions: gram-negative bacterial strains (FIG. 3)
Description: (§3) The present inventors performed in vitro experiments on the strain cultured in Example 2 above. Specifically, each strain was prepared to be 1×10^8 per 1 mL of medium, and 1 mL was dispensed into tubes. The experiments were performed three times according to the experimental period, and 0.74 MBq of [^18F]FDS synthesized as described above was injected and incubated for 2 hours in the incubator. After 2 hours, each strain was divided into a filterable 1.5 mL centrifuge tube, and the fungi and medium were separated through centrifugation. After washing twice with phosphate buffer, the filtered fungi were collected and the intake was measured with a gamma counter.
(§4) The present inventors confirmed the uptake ability of [^18F]FDS of the present invention using fungal strain cultivation.

[2] = system: gram-positive bacterial strains; test: In vitro uptake of [^18F]FDS by bacterial strains; format: cell-based; conditions: gram-positive bacterial strains (FIG. 3)
Description: as §3, §4

fungi = test: In vitro uptake of [^18F]FDS, fungi compared with bacteria; format: cell-based; conditions: in vitro experiment; fungi vs bacteria
Description: as §3

[3] = system: A. fumigatus lung infection; test: microPET imaging in A. fumigatus lung infection small animal model; format: in vivo; conditions: Balb/c mice infected with A. fumigatus in the lung; 7.4 MBq tail vein; image 2 hours after injection (FIG. 4)
Description: (§5) The present inventors created a lung infection model by the following method. First, after preparing Balb/c mice 8 weeks old (female), 150 mg/kg 100 μl of cyclophosphamide was intraperitoneally injected 4 days before infection. After 3 days, 100 μl of 250 mg/kg of cortisone acetate was injected into the subcutaneous fat layer, and the mice were anesthetized after 24 hours. And then the lung infection model mice were prepared by the injection of 70 μl of A. fumigatus fungal solution (about 1.5×10^7 conidia) through the nasal cavity.
(§6) The present inventors acquired microPET images 2 hours after injecting the [^18F]FDS (7.4 MBq) according to the present invention into the tail vein of the infected mice, and the acquired images were reconstructed by using the 3D-ordered subset expectation maximization (3D-OSEM) method.
The present inventors confirmed the fungal selective uptake ability of [^18F]FDS of the present invention using small animal infection models. To this end, [^18F]FDS was administered intravenously to Balb/c mice infected with A. fumigatus in the lung prepared in Example 4, and microPET images were acquired and analyzed.

[4] = system: A. fumigatus muscle infection; test: microPET imaging in A. fumigatus muscle infection small animal model; format: in vivo; conditions: Balb/c mice, A. fumigatus forelimb muscle infection; 7.4 MBq tail vein; image 2 hours after injection; compared to the control group (FIGS. 5-7)
Description: as §5, with “produced” for “created”, “muscle” for “lung”, “100” for “70”, “1.5×10^8” for “1.5×10^7”, “into” for “through”, “forelimb muscle of the mice.” for “nasal cavity.”
as §6

`OC[C@@H](O)[C@@H](O)[C@H](O)[C@@H]([18F])CO` [[^18F]FDS, 2-deoxy-2-[^18F]fluorosorbitol] was tested, and the “uptake of [^18F]FDS” value (C. albicans) was “very high selective uptake”, the “uptake of [^18F]FDS” value (A. fumigatus) was “very high selective uptake” and the “uptake of [^18F]FDS” value (Rhizopus sp.) was “very high selective uptake”. The “uptake of [^18F]FDS” value [1] was “showed uptake”, the “uptake of [^18F]FDS” value [2] was “did not show no uptake” and the “degree of uptake of [^18F]FDS by fungi relative to bacterial uptake” value (fungi) was “more than 10 times”. For the same compound, the “uptake of [^18F]FDS in the lungs (microPET)” value [3] was “very high selective uptake” and the “uptake of [^18F]FDS at the muscle infection site (microPET)” value [4] was “very high selective uptake”.
